Test [1] deals with Mycosphaerella arachidis (Cercospora arachidicola). The test can be described thus: Mycosphaerella arachidis (Cercospora arachidicola) / liquid culture (early leaf spot). The class given is cell-based. Particulars: PDB liquid culture, 24° C., growth inhibition determined photometrically 4-5 days after application, vs untreated control. How it is done:
Example B6: Mycosphaerella arachidis (Cercospora arachidicola)/Liquid Culture (Early Leaf Spot) Conidia of the fungus from cryogenic storage are directly mixed into nutrient broth (PDB potato dextrose broth). After placing a (DMSO) solution of test compound into a microtiter plate (96-well format), the nutrient broth containing the fungal spores is added. The test plates are incubated at 24° C. and the inhibition of growth is determined photometrically 4-5 days after application. […] […]-44, and P-48.

For test [2], the system named is Mycosphaerella graminicola (Septoria tritici). In words: Mycosphaerella graminicola (Septoria tritici) / liquid culture (Septoria blotch). The class given is cell-based. Particulars: Zymoseptoria tritici, PDB liquid culture, 24° C., growth inhibition determined photometrically 4-5 days after application, vs untreated control. The protocol:
Example B12: Mycosphaerella graminicola (Septoria tritici)/Liquid Culture (Septoria Blotch) Conidia of the fungus from cryogenic storage are directly mixed into nutrient broth (PDB potato dextrose broth). After placing a (DMSO) solution of test compound into a microtiter plate (96-well format), the nutrient broth containing the fungal spores is added. The test plates are incubated at 24° C. and the inhibition of growth is determined photometrically 4-5 days after application. […] […]-48, and P-49.

For test [3], the system named is Monographella nivalis (Microdochium nivale). The test can be described thus: Monographella nivalis (Microdochium nivale) / liquid culture (foot rot cereals). Particulars: PDB liquid culture, 24° C., growth inhibition determined photometrically 4-5 days after application, vs untreated control. Format: cell-based. How it is done:
Example B5: Monographella nivalis (Microdochium nivale)/Liquid Culture (Foot Rot Cereals) Conidia of the fungus from cryogenic storage are directly mixed into nutrient broth (PDB potato dextrose broth). After placing a (DMSO) solution of test compound into a microtiter plate (96-well format), the nutrient broth containing the fungal spores is added. The test plates are incubated at 24° C. and the inhibition of growth is determined photometrically 4-5 days after application. […] […]-49, and P-50.

A further test deals with Alternaria solani. The test can be described thus: Alternaria solani / tomato / leaf disc (early blight). Format: in vivo. Particulars: foliar, tomato leaf disks cv. Baby, inoculated 2 days after application, assessed 5-7 days after application, vs untreated control. The protocol:
Example B1: Alternaria solani/Tomato/Leaf Disc (Early Blight) Tomato leaf disks cv. Baby are placed on agar in multiwell plates (24-well format) and sprayed with the formulated test compound diluted in water. The leaf disks are inoculated with a spore suspension of the fungus 2 days after application. The inoculated leaf disks are incubated at 23° C./21° C. […] […]-43, and P-44.

The test system of test [4] is Glomerella lagenarium (Colletotrichum lagenarium). The test can be described thus: Glomerella lagenarium (Colletotrichum lagenarium) / liquid culture (anthracnose). Format: cell-based. The note with it: Colletotrichum orbiculare, PDB liquid culture, 24° C., growth inhibition measured photometrically 3-4 days after application, vs untreated control. The protocol: Example B2: Glomerella lagenarium (Colletotrichum lagenarium)/Liquid Culture (Anthracnose) Conidia of the fungus from cryogenic storage are directly mixed into nutrient broth (PDB potato dextrose broth). After placing a (DMSO) solution of test compound into a microtiter plate (96-well format), the nutrient broth containing the fungal spores is added. The test plates are incubated at 24° C. and the inhibition of growth is measured photometrically 3-4 days after application. […] […]-49, and P-50.

For test [5], the system named is Magnaporthe grisea (Pyricularia oryzae). The test can be described thus: whole plant or invertebrate. The class given is in vivo. Particulars: foliar, read-out: control of Magnaporthe grisea.
For test [6], the system named is Blumeria graminis f. sp. tritici (Erysiphe graminis f. sp. tritici). The test can be described thus: Blumeria graminis f. sp. tritici / wheat / leaf disc preventative (powdery mildew on wheat). Format: in vivo. The note with it: foliar, wheat leaf segments cv. Kanzler, inoculated 1 day after application, assessed 6-8 days after application, vs untreated control. How it is done: Example B3: Blumeria graminis f. sp. tritici (Erysiphe graminis f. so. tritici)/Wheat/Leaf Disc Preventative (Powdery Mildew on Wheat) Wheat leaf segments cv. Kanzler are placed on agar in a multiwell plate (24-well format) and sprayed with the formulated test compound diluted in water. The leaf disks are inoculated by shaking powdery mildew infected plants above the test plates 1 day after application. The inoculated leaf disks are incubated at 20°° C. and 60% rh under a light regime of 24 h darkness followed by 12 h light/12 h darkness in a climate chamber and the activity of a compound is assessed as percent disease control compared to untreated when an appropriate level of disease damage appears on untreated check leaf segments (6-8 days after application). […]-45, and P-50.

The test system of test [7] is Puccinia recondita f. sp. tritici. The test can be described thus: Puccinia recondita f. sp. tritici / wheat / leaf disc preventative (brown rust). The class given is in vivo. Particulars: foliar, wheat leaf segments cv. Kanzler, inoculated 1 day after application, assessed 7-9 days after application, vs untreated control. How it is done:
Example B8: Puccinia recondita f. sp. tritici/Wheat/Leaf Disc Preventative (Brown rust) Wheat leaf segments cv. Kanzler are placed on agar in multiwell plates (24-well format) and sprayed with the formulated test compound diluted in water. The leaf disks are inoculated with a spore suspension of the fungus 1 day after application. The inoculated leaf segments are incubated at 19° C. and 75% rh under a light regime of 12 h light/12 h darkness in a climate cabinet and the activity of a compound is assessed as percent disease control compared to untreated when an appropriate level of disease damage appears in untreated check leaf segments (7-9 days after application).

Test [8] relates to Botryotinia fuckeliana (Botrytis cinerea). The test can be described thus: Botryotinia fuckeliana (Botrytis cinerea) / liquid culture (gray mould). Format: cell-based. The note with it: 20 ppm; Vogels broth liquid culture, 24° C., growth inhibition determined photometrically 3-4 days after application; vs untreated control. How it is done:
Example B13: Botryotinia fucleliana (Botrytis cinerea)/Liquid Culture (Gray Mould) Conidia of the fungus from cryogenic storage are directly mixed into nutrient broth (Vogels broth). After placing a (DMSO) solution of test compound into a microtiler plate (96-well format), the nutrient broth containing the fungal spores is added. The test plates are incubated at 24° C. and the inhibition of growth is determined photometrically 3-4 days after application. […] P-25.

Results on 8 compounds are retold here after patent publication US12528778B2, “Microbiocidal derivatives” (SYNGENTA CROP PROTECTION AG, priority 2019, dated 2026).

SMILES strings stand for the structures.

One may read the inhibition of growth as the relative decrease from the control value, in per cent. As to `COc1ncc(Nc2cccc(F)c2)nc1C(=O)NC1CCC1(C)C` (stereo not shown) [Compound P-5, N-(2.2-dimethylcyclobutyl)-6-(3-fluoroanilino)-3-methoxy-pyrazine-2-carboxamide], the inhibition of growth at 20 ppm in test [1], in test [2], in [3] and in [4] was not below 80% throughout. The pest or weed control at 200 ppm (in the test with Alternaria solani; in [5]; in [6]; in test [7]) was not below 80% in each case.
Take `COc1ncc(NCC2CC2)nc1C(=O)NC1CCC1(C)C` (stereo not shown) [Compound P-9, 6-(cyclopropylmethylamino)-N-(2,2-dimethylcyclobutyl)-3-methoxy-pyrazine-2-carboxamide]: the inhibition of growth at 20 ppm in test [1], in test [2], in [3] and in test [4] was not below 80% in each case. The pest or weed control at 200 ppm (with Alternaria solani; in test [6]; in test [7]) was not below 80% in each case.
`COc1ncc(Nc2cc(F)cc(F)c2)nc1C(=O)NC1COC2(CC2)C1` (stereo not shown) [Compound P-20, 6-(3,5-difluoroanilino)-3-methoxy-N-(4-oxaspiro[2.4]heptan-6-yl)pyrazine-2-carboxamide]: the inhibition of growth at 20 ppm in [1], in test [2], in [3] and in [4] was not below 80% throughout. The pest or weed control at 200 ppm (in the test with Alternaria solani; in [5]; in [6]; in [7]) was not below 80% in each case.
As to `COc1ncc(Nc2cc(F)cc(F)c2)nc1C(=O)NCC1(C)CCOC2(CCC2)C1` (stereo not shown) [Compound P-22, 6-(3,5-difluoroanilino)-3-methoxy-N-[(8-methyl-5-oxaspiro[3.5]nonan-8-yl)methyl]pyrazine-2-carboxamide], the inhibition of growth at 20 ppm in test [1], in test [2], in test [3] and in test [4] was not below 80% throughout. Also, the pest or weed control at 200 ppm (in the test on Alternaria solani; in test [5]; in [6]; in [7]) was not below 80% each time.
Consider `COc1ncc(Nc2cc(F)cc(F)c2)nc1C(=O)NCC1(C(F)(F)F)CC1` [Compound P-25, 6-(3,5-difluoroanilino)-3-methoxy-N-[[1-(trifluoromethyl)cyclopropyl]methyl] pyrazine-2-carboxamide], for which the inhibition of growth at 20 ppm in test [1], in test [2], in test [3] and in test [4] was not below 80% each time. The “control of Botryotinia fuckeliana” value in test [8] is “at least 80%”. Also, the pest or weed control at 200 ppm (in the test on Alternaria solani; in [5]; in test [6]; in [7]) was not below 80% each time.
On to `COc1ncc(Nc2cc(F)cc(F)c2)nc1C(=O)NC(C)(C)C` [Compound P-38, N-tert-butyl-6-(3,5-difluoroanilino)-3-methoxy-pyrazine-2-carboxamide], for which the inhibition of growth at 20 ppm in test [1], in [2], in [3] and in test [4] was not below 80% in each case. For the same compound, the pest or weed control at 200 ppm (in the test on Alternaria solani; in test [5]; in test [6]; in test [7]) was not below 80% throughout.
`COc1ncc(Nc2cc(F)cc(F)c2)nc1C(=O)NCC(C)(C)C` [Compound P-39, 6-(3,5-difluoroanilino)-N-(2,2-dimethylpropyl)-3-methoxy-pyrazine-2-carboxamide]: the inhibition of growth at 20 ppm in test [1], in [2], in test [3] and in test [4] was not below 80% each time. For the same compound, the pest or weed control at 200 ppm (in the test on Alternaria solani; in test [5]; in test [6]; in test [7]) was not below 80% throughout.
Take `COc1ncc(Nc2cc(F)cc(F)c2)nc1C(=O)NC1CCC1(C)C` (stereo not shown) [Compound P-43, 6-(3,5-difluoroanilino)-N-(2,2-dimethylcyclobutyl)-3-methoxy-pyrazine-2-carboxamide]: the inhibition of growth at 20 ppm in test [1], in test [2], in test [3] and in test [4] was not below 80% each time. Besides, the pest or weed control at 200 ppm (in the test on Alternaria solani; in test [5]; in test [6]; in test [7]) was not below 80% in each case.
